# Results: US7943770B2, “Fused quinoline derivative and use thereof” (Takeda Pharmaceutical Company Limited, priority 2004, dated 2011)
# Structures can show the parent of a compound that is named as a salt.
# Molecular target: T1, hNK2 receptor (Homo sapiens, UniProt P21452)
# T1 construct: host or cells: CHO cells
# T1 sequence (P21452 1-398): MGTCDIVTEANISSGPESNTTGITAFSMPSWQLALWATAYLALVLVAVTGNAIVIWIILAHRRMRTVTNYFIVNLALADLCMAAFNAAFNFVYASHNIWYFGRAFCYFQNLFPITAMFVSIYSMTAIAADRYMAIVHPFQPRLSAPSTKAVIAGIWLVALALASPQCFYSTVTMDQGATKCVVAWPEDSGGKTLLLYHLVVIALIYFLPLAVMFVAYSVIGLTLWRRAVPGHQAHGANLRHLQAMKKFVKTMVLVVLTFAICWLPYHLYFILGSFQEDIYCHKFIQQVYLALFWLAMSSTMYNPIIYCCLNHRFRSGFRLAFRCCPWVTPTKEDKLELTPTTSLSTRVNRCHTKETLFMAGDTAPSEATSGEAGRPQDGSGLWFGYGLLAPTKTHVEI
# Experiment: Radio-ligand ([125I]-NKA) receptor binding inhibitory activity using membrane fraction of hNK2 receptor-expressing CHO cell
# Details: membrane fraction of hNK2 receptor-expressing CHO cells, 25° C., 30 min
# Experimental: hNK2 receptor-expressing CHO cells (produced by EUROSCREEN) were cultured in HAM-F12 medium containing 400 μg/ml Geneticin, 100 U/mL penicillin, 100 μg/mL streptomycin and 10% inactivated serum. The medium was removed and adhered cells were washed with PBS, and PBS containing 5 mM EDTA was added to detach the cells from the flask. The cells were recovered by centrifugation, suspended in suspending buffer A (15 mM Tris-HCl (pH 7.5), 2 mM MgCl2, 0.3 mM EDTA, 1 mM EGTA), disrupted by POLYTRON homogenizer (manufactured by KINEMATICA) and centrifuged at 800×g for 10 min. The supernatant was recovered and ultracentrifuged at 100000×g for 25 min. The precipitated fraction was suspended in suspending buffer B (7.5 mM Tris-HCl (pH 7.5), 12.5 mM MgCl2, 0.3 mM EDTA, 1 mM, […], 250 mM Sucrose) and cryopreserved (at −80° C.) as a receptor specimen.
# An assay buffer (50 μl, 50 mM Tris-HCl (pH 7.4), 0.02% bovine serum albumin, 2 μg/mL chymostatin, 40 μg/mL bacitracin, 40 μg/mL APMSF, 3 mM MnCl2) was added to a 96 well microassay plate. Thereto was added a 20 μg/mL membrane specimen suspended in the assay buffer (50 μL). An assay buffer (50 μL) containing 2% dimethyl sulfoxide was added to examine the total binding, 4 unlabeled NKA (produced by Peptide Institute, Inc.) solution (50 μL) diluted with an assay buffer containing 2% dimethyl sulfoxide was added to examine non-specific binding, and a test compound diluted with an assay buffer (50 containing 2% dimethyl sulfoxide) was added to examine the binding inhibitory activity of the test compound. Furthermore, […] [^125I]-NKA (produced by Amersham Biosciences) solution (50 μL) was added to each well.
# After reaction at 25° C. for 30 min., the reaction was stopped by rapid filtration on a unifilter plate (GF/C) (manufactured by PerkinElmer) using a cell harvester (manufactured by PerkinElmer) and the cells were washed 5 times with 50 mM Tris-HCl (pH 7.4) buffer containing 0.02% bovine serum albumin (250 μL). The GF/C filter plate was dried and 20 μl, of MicroScinti-O (manufactured by PerkinElmer) was added and the radioactivity was measured in Topcount (manufactured by PerkinElmer). The GF/C filter plate, which had been immersed in 0.3% polyethyleneimine for one day, was used. Specific binding is shown by the value obtained by subtracting non-specific binding from the total binding. The binding inhibitory activity of the test compound is shown by the ratio of the value obtained by subtracting the measured value associated with the addition of the test compound from the total binding, to the value of the specific binding.
row,IC50,Structure (SMILES)
1,< 10 nM,"O=C(N[C@@H]1CCCC[C@@H]1C(=O)N1CC[C@@H]2[C@H](c3ccccc3)Nc3ccccc3[C@@H]21)c1ccccc1 (relative stereo) [Example 1, N-((1R,2S)-2-{[(3aR*,4R*,9bR*)-4-Phenyl-2,3,3a,4,5,9b-hexahydro-1H-pyrrolo[3,2-c]quinolin-1-yl]carbonyl}cyclohexyl)benzamide]"
2,< 10 nM,"O=C(N[C@@H]1CCCC[C@@H]1C(=O)N1CC[C@@H]2[C@H](c3ccccc3)Nc3cc(F)ccc3[C@@H]21)c1ccccc1 (relative stereo) [Example 6, N-((1R,2S)-2-{[(3aR*,4R*,9bR*)-7-Fluoro-4-phenyl-2,3,3a,4,5,9b-hexahydro-1H-pyrrolo[3,2-c]quinolin-1-yl]carbonyl}cyclohexyl)benzamide]"
3,< 10 nM,"O=C(N[C@@H]1CCCC[C@@H]1C(=O)N1CC[C@@H]2[C@H](c3ccccc3)Nc3cc(Cl)ccc3[C@@H]21)c1ccccc1 (relative stereo) [Example 7, N-((1R,2S)-2-{[(3aR*,4R*,9bR*)-7-Chloro-4-phenyl-2,3,3a,4,5,9b-hexahydro-1H-pyrrolo[3,2-c]quinolin-1-yl]carbonyl}cyclohexyl)benzamide]"
4,< 10 nM,"O=C(N[C@@H]1CCCC[C@@H]1C(=O)N1CC[C@@H]2[C@H](c3ccccc3)Nc3c(F)cccc3[C@@H]21)c1ccccc1 (relative stereo) [Example 8, N-((1R,2S)-2-{[(3aR*,4R*,9bR*)-6-Fluoro-4-phenyl-2,3,3a,4,5,9b-hexahydro-1H-pyrrolo[3,2-c]quinolin-1-yl]carbonyl}cyclohexyl)benzamide]"
5,< 10 nM,"O=C(N[C@@H]1CCCC[C@@H]1C(=O)N1CC[C@@H]2[C@H](c3ccc(F)cc3)Nc3ccccc3[C@@H]21)c1ccccc1 (relative stereo) [Example 9, N-((1R,2S)-2-{[(3aR*,4R*,9bR*)-4-(4-Fluorophenyl)-2,3,3a,4,5,9b-hexahydro-1H-pyrrolo[3,2-c]quinolin-1-yl]carbonyl}cyclohexyl)benzamide]"
6,< 10 nM,"O=C(N[C@@H]1CCCC[C@@H]1C(=O)N1CC[C@@H]2[C@H](c3ccco3)Nc3ccccc3[C@@H]21)c1ccccc1 (relative stereo) [Example 15, N-((1R,2S)-2-{[(3aR*,4R*,9bR*)-4-(2-Furyl)-2,3,3a,4,5,9b-hexahydro-1H-pyrrolo[3,2-c]quinolin-1-yl]carbonyl}cyclohexyl)benzamide]"
7,< 1 nM,"O=C(N[C@@H]1CCCC[C@@H]1C(=O)N1CC[C@@H]2[C@H](c3ccoc3)Nc3ccccc3[C@@H]21)c1ccccc1 (relative stereo) [Example 16, N-((1R,2S)-2-{[(3aR*,4R*,9bR*)-4-(3-Furyl)-2,3,3a,4,5,9b-hexahydro-1H-pyrrolo[3,2-c]quinolin-1-yl]carbonyl}cyclohexyl)benzamide]"
8,< 10 nM,"O=C(N[C@@H]1CCCC[C@@H]1C(=O)N1CC[C@@H]2[C@H](c3cccs3)Nc3ccccc3[C@@H]21)c1ccccc1 (relative stereo) [Example 17, N-((1R,2S)-2-{[(3aR*,4R*,9bR*)-4-(2-Thienyl)-2,3,3a,4,5,9b-hexahydro-1H-pyrrolo[3,2-c]quinolin-1-yl]carbonyl}cyclohexyl)benzamide]"
9,< 1 nM,"O=C(N[C@@H]1CCCC[C@@H]1C(=O)N1CC[C@H]2[C@@H](c3ccsc3)Nc3ccccc3[C@H]21)c1ccccc1 (relative stereo) [Example 18, N-((1R,2S)-2-{[(3aS*,4S*,9bS*)-4-(3-Thienyl)-2,3,3a,4,5,9b-hexahydro-1H-pyrrolo[3,2-c]quinolin-1-yl]carbonyl}cyclohexyl)benzamide]"
10,< 10 nM,"O=C(N[C@@H]1CCCC[C@@H]1C(=O)N1CC[C@@H]2[C@H](c3ccccn3)Nc3ccccc3[C@@H]21)c1ccccc1 (relative stereo) [Example 19, N-((1R,2S)-2-{[(3aR*,4R*,9bR*)-4-Pyridin-2-yl-2,3,3a,4,5,9b-hexahydro-1H-pyrrolo[3,2-c]quinolin-1-yl]carbonyl}cyclohexyl)benzamide]"
11,< 10 nM,"O=C(N[C@@H]1CCCC[C@@H]1C(=O)N1CC[C@@H]2[C@H](c3cccnc3)Nc3ccccc3[C@@H]21)c1ccccc1 (relative stereo) [Example 20, N-((1R,2S)-2-{[(3aR*,4R*,9bR*)-4-Pyridin-3-yl-2,3,3a,4,5,9b-hexahydro-1H-pyrrolo[3,2-c]quinolin-1-yl]carbonyl}cyclohexyl)benzamide]"
12,< 10 nM,"Cn1cccc1[C@@H]1Nc2ccccc2[C@H]2[C@@H]1CCN2C(=O)[C@H]1CCCC[C@H]1NC(=O)c1ccccc1 (relative stereo) [Example 23, N-((1R,2S)-2-{[(3aR*,4R*,9bR*)-4-(1-Methyl-1H-pyrrol-2-yl)-2,3,3a,4,5,9b-hexahydro-1H-pyrrolo[3,2-c]quinolin-1-yl]carbonyl}cyclohexyl)benzamide]"
13,< 10 nM,"O=C(N[C@@H]1CCCC[C@@H]1C(=O)N1CC[C@@H]2[C@H](c3nccs3)Nc3ccccc3[C@@H]21)c1ccccc1 (relative stereo) [Example 25, N-((1R,2S)-2-{[(3aR*,4R*,9bR*)-4-(1,3-Thiazol-2-yl)-2,3,3a,4,5,9b-hexahydro-1H-pyrrolo[3,2-c]quinolin-1-yl]carbonyl}cyclohexyl)benzamide]"
14,< 10 nM,"CCC[C@@H]1Nc2ccccc2[C@H]2[C@@H]1CCN2C(=O)[C@H]1CCCC[C@H]1NC(=O)c1ccccc1 (relative stereo) [Example 27, N-((1R,2S)-2-{[(3aR*,4S*,9bR*)-4-Propyl-2,3,3a,4,5,9b-hexahydro-1H-pyrrolo[3,2-c]quinolin-1-yl]carbonyl}cyclohexyl)benzamide]"
15,< 10 nM,"CC(C)[C@@H]1Nc2ccccc2[C@H]2[C@@H]1CCN2C(=O)[C@H]1CCCC[C@H]1NC(=O)c1ccccc1 (relative stereo) [Example 28, N-((1R,2S)-2-[(3aR*,4S*, 9bR*)-4-Isopropyl-2,3,3a,4,5,9b-hexahydro-1H-pyrrolo[3,2-c]quinolin-1-yl]carbonyl)cyclohexyl)benzamide]"
16,< 10 nM,"O=C(N[C@@H]1CCCC[C@@H]1C(=O)N1CC[C@@H]2[C@H](C3CC3)Nc3ccccc3[C@@H]21)c1ccccc1 (relative stereo) [Example 29, N-((1R,2S)-2-{[(3aR*,4S*,9bR*)-4-Cyclopropyl-2,3,3a,4,5,9b-hexahydro-1H-pyrrolo[3,2-c]quinolin-1-yl]carbonyl}cyclohexyl)benzamide]"
17,< 10 nM,"COC[C@@H]1Nc2ccccc2[C@H]2[C@@H]1CCN2C(=O)[C@H]1CCCC[C@H]1NC(=O)c1ccccc1 (relative stereo) [Example 51, N-((1R,2S)-2-{[(3aR*,4R*,9bR*)-4-(Methoxymethyl)-2,3,3a,4,5,9b-hexahydro-1H-pyrrolo[3,2-c]quinolin-1-yl]carbonyl}cyclohexyl)benzamide]"
18,< 10 nM,"O=C(N[C@@H]1CCCC[C@@H]1C(=O)N1CC[C@@H]2[C@H](c3cc[nH]c3)Nc3ccccc3[C@@H]21)c1ccccc1 (relative stereo) [Example 52, N-((1R,2S)-2-{[(3aR*,4R*,9bR*)-4-(1H-Pyrrol-3-yl)-2,3,3a,4,5,9b-hexahydro-1H-pyrrolo[3,2-c]quinolin-1-yl]carbonyl}cyclohexyl)benzamide]"
19,< 10 nM,"CNC[C@@H]1Nc2ccccc2[C@H]2[C@@H]1CCN2C(=O)[C@H]1CCCC[C@H]1NC(=O)c1ccccc1 (relative stereo) [Example 53, N-[(1R,2S)-2-({(3aR*,4R*,9bR*)-4-[(Methylamino)methyl]-2,3,3a,4,5,9b-hexahydro-1H-pyrrolo[3,2-c]quinolin-1-yl}carbonyl)cyclohexyl]benzamide dihydrochloride]"
20,< 1 nM,"O=C(N[C@@H]1CCCC[C@@H]1C(=O)N1CC[C@@H]2[C@H](c3ncc[nH]3)Nc3ccccc3[C@@H]21)c1ccccc1 (relative stereo) [Example 54, N-((1R,2S)-2-{[(3aR*,4R*,9bR*)-4-(1H-Imidazol-2-yl)-2,3,3a,4,5,9b-hexahydro-1H-pyrrolo[3,2-c]quinolin-1-yl]carbonyl}cyclohexyl)benzamide]"
